This is an account of results in the Deep4Chem optical property database.

The data set can be described thus: solvent given as SMILES.

Structures are written as SMILES.

On to `C/C(=N\Nc1ccc(C#N)cc1)c1ccccn1`, for which the absorption maximum by setting is: (in CC#N) 342 nm; (in CCCCCC) 347 nm; (in CO) 364 nm; (in CS(C)=O) 351 nm; (in ClC(Cl)Cl) 343 nm.

Where the note is “in C1CCOC1”, `c1ccc2c(P(c3c4ccccc4cc4ccccc34)c3c4ccccc4cc4ccccc34)c3ccccc3cc2c1` showed an absorption maximum of 437 nm.

Turning to `O=[N+]([O-])c1ccc(NCCNCc2c3ccccc3cc3ccccc23)c([N+](=O)[O-])c1`, the absorption maximum by setting is: (in C1CCCCC1) 368 nm; (in C1CCOC1) 349 nm; (in CC#N) 364 nm; (in CC(C)=O) 364 nm; (in CCO) 364 nm; (in CN(C)C=O) 363 nm. Further, the absorption maximum was found to be 348 nm (in CO) and 350 nm (in ClC(Cl)Cl).

As for `Cc1ccc(C2=C3C=CC(/C=C/c4ccccc4)=[N+]3[B-](F)(F)n3c(Cl)ccc32)cc1`, the absorption maximum is 569 nm (in C1CCCCC1); 568 nm (in C1CCOC1); 569 nm (in C1COCCO1); 565 nm (in CCOC(C)=O); 564 nm (in CO); 572 nm (in Cc1ccccc1). The compound further gave an absorption maximum (in ClC(Cl)Cl) of 571 nm.

On to `CCCCC1=C(CCCC)c2cccc3c2c(cc2nc4ccccc4nc23)O1`, for which the absorption maximum (in ClCCl) was 503 nm.

As for `CN(C)c1ccc(-c2ccc(/C=C/c3ccncn3)cc2)cc1`, the absorption maximum (in ClCCl) came to 386 nm.

The compound `Clc1ccccc1N1c2sc3ccccc3c2Sc2c1sc1ccccc21` displayed an absorption maximum (in ClCCl) of 421 nm.

`CC[N+]1(CC)CN2C(=N1)C(C(=O)O)=Cc1cc(C)c(C)cc12` registered an absorption maximum (in O) of 378 nm.

Under “in O”, `Cc1ccc(O)cc1` came in with an absorption maximum of 276 nm.

Compound `Cc1ccc(/N=C2\N=C(N)c3cccc4cccc2c34)cc1` yielded an absorption maximum (in ClCCl) of 349 nm.

Regarding `COC(C)CC1=N/C(=C\c2cccc(N(C)C)c2)C(=O)N1C` (stereo unspecified), the absorption maximum is, setting by setting: (in C1CCOC1) 355 nm; (in CC#N) 355 nm; (in CCCCCC) 354 nm.

With `COC(=O)C1=C(C(=O)OC)C2(c3ccccc3-c3ccccc32)[C@@H](c2ccc([N+](=O)[O-])cc2)C=C2c3cc(OC)c(OC)cc3CCN21`, for the setting “in ClCCl”, the absorption maximum was found to be 310 nm.

In the case of `c1ccc(N2N=C(c3cccc4ccccc34)CC2c2ccc3ccc4cccc5ccc2c3c45)cc1` (stereo unspecified), under “in ClCCl”, the absorption maximum is reported as 391 nm.

Take `O=C1c2ccccc2-c2nc3c4ccccc4c4ccccc4c3n21`: under “in ClCCl”, the absorption maximum was determined as 441 nm.

As to `O=c1oc2ccccc2c2c1c(=O)oc1cc(O)ccc12`, the absorption maximum (in CS(C)=O) is 376 nm and the absorption maximum (in ClCCl) is listed as 374 nm.

Turning to `CCC1(CC)c2cc(N(C)C)ccc2-c2ccc(C(F)(F)F)cc21`, the absorption maximum is on record as 341 nm (in C1CCCCC1); 302 nm (in CC#N); 342 nm (in CCO); 342 nm (in CCOCC); 350 nm (in CS(C)=O); 344 nm (in ClCCl). Further, the absorption maximum (in c1ccccc1) came out at 346 nm.

The compound `COc1cc2c(cc1-c1ccc(C)cc1)Cc1c3c(c4c(c1-2)-c1cc(OC)c(-c2ccc(C)cc2)cc1C4)C(=O)N(CCC(C)C)C3=O` showed an absorption maximum (in C1CCOC1) of 411 nm.

`COc1ccc(-c2cc3c(s2)-c2sc(-c4ccc(OC)cc4)cc2P(c2ccccc2)(c2ccccc2)=[O+][B-]3(c2c(C)cc(C)cc2C)c2c(C)cc(C)cc2C)cc1` came in with an absorption maximum (in C1CCOC1) of 415 nm.

As for `c1ccc2c(c1)oc1nc3oc4ccc(-n5c6ccccc6c6cc(-n7c8ccccc8c8ccccc87)ccc65)cc4c3cc12`, where the note is “in ClC(Cl)Cl”, the absorption maximum stood at 354 nm.

Take `CCOC(=O)C1=C(N)n2c(=O)c3ccccc3c(=O)n2C1c1cccs1` (stereo unspecified): the absorption maximum (in CS(C)=O) came to 365 nm.

In turn, `Clc1ccc2nc3cc4ccccc4cc3c(-c3ccccc3)c2c1` showed an absorption maximum (in ClCCl) of 402 nm.

For the compound `CN(C)c1ccc2nc(-c3ccc(C(=O)OC[C@H](NC(=O)OC(C)(C)C)C(=O)OCc4ccccc4)cc3)sc2c1`, the absorption maximum came out at 390 nm (in C1CCCCC1); 398 nm (in CC#N); 397 nm (in CC(C)O); 397 nm (in CO); 408 nm (in CS(C)=O); 401 nm (in ClC(Cl)Cl). The absorption maximum (in c1ccccc1) worked out at 397 nm.

In the case of `Clc1ccc(-c2nc(-c3ccccc3)c(N(c3ccccc3)c3ccccc3)s2)cc1`, the absorption maximum (in ClC(Cl)Cl) was 371 nm.

Turning to `C(=C\c1ccccn1)/c1ccc(N(c2ccc(/C=C/c3ccccn3)cc2)c2ccc(-c3nc4ccccc4nc3-c3ccc(N(c4ccc(/C=C/c5ccccn5)cc4)c4ccc(/C=C/c5ccccn5)cc4)cc3)cc2)cc1`, the absorption maximum is, setting by setting: (in C1CCOC1) 383 nm; (in Cc1ccccc1) 378 nm.

In turn, `O=C1c2ccccc2C(=O)C1C1C(=O)c2c3ccccc3cc3cc4ccccc4c1c23` (stereo unspecified) registered an absorption maximum (in ClCCl) of 505.72 nm.

`CCOC(=O)c1c(-c2c(Cl)c3cc(C)ccc3oc2=O)nn(-c2cccc(C)c2)c1C(=O)OCC`: the absorption maximum (in ClCCl) is given as 331 nm.

Consider `CCN(CC)c1cc(F)c(C(=O)c2cc(F)c(N(CC)CC)cc2F)cc1F`, for which the absorption maximum (in CCO) was found to be 369 nm.

In the case of `COc1ccc2ccccc2c1C1=CC(c2ccccc2)=C(c2ccccc2)C1`, under “in ClCCl”, the absorption maximum was 340 nm.

For `CCCC1=Cc2nc1ccc1[nH]c(cc1CCO)c1nc(ccc3[nH]c2cc3CCC)C(CCC)=C1`, the absorption maximum (in Cc1ccccc1) is 637 nm.

In the case of `COC(=O)/C(C#N)=C/c1cn(-c2ccccc2)nc1-c1ccc([N+](=O)[O-])cc1`, the absorption maximum by setting is: (in C1CCOC1) 333 nm; (in C1COCCO1) 333 nm; (in CCO) 335 nm; (in CCOC(C)=O) 330 nm; (in CN(C)C=O) 330 nm; (in CO) 330 nm. The absorption maximum by setting is: (in CS(C)=O) 330 nm; (in Cc1ccccc1) 347 nm; (in ClC(Cl)Cl) 339 nm.

For the setting “in Cc1ccccc1”, `N#Cc1nc2c3ccc(-n4c5ccccc5c5ccccc54)cc3c3cc(-n4c5ccccc5c5ccccc54)ccc3c2nc1C#N` gave an absorption maximum of 442 nm.

On to `C=CCNc1ccc2ccc3oc4cc(=O)ccc-4nc3c2c1`, for which the absorption maximum by setting is: (in CC#N) 537 nm; (in CCO) 531 nm; (in ClCCl) 539 nm; (in O) 522 nm.

Take `Cc1ccc2c(c1)nc1c(=O)n(C)c(=O)nc-1n2C`: where the note is “in CC#N”, the absorption maximum was 446 nm.

For `Cc1cccc2nc3[nH]c(=O)[nH]c(=O)c3nc12`, the absorption maximum (in CC#N) is 380 nm.

Regarding `Cc1ccc(-n2c(-c3ccccc3O)nc(-c3ccccc3O)c2-c2ccccc2O)cc1`, the absorption maximum is, setting by setting: (in C1CCOC1) 307 nm; (in CC(C)O) 303 nm; (in CO) 303 nm; (in CS(C)=O) 306 nm; (in ClC(Cl)Cl) 310 nm; (in ClCCl) 309 nm.

Compound `CCOC(=O)/N=c1/oc2cc(OC)ccc2cc1C#N` displayed an absorption maximum (in ClCCl) of 370 nm.

`CCC1=C(C)C2=Cc3ccccc3B(O)N2C1=O`: the absorption maximum is, setting by setting: (in CC#N) 358 nm; (in CCCCCC) 378 nm; (in CO) 359 nm; (in CS(C)=O) 361 nm; (in ClC(Cl)Cl) 362 nm.

Take `O=C(O)c1ccc2ccc3cccc4ccc1c2c34`: the absorption maximum by setting is: (in C1CCOC1) 379 nm; (in CC#N) 379 nm; (in CCCCCC) 381 nm; (in CCO) 340 nm; (in CN(C)C=O) 377 nm; (in CO) 339 nm. Further, the absorption maximum runs as follows: (in Cc1ccccc1) 382 nm; (in ClCCl) 382 nm.

The compound `COc1ccccc1C1=NC2c3cccc4cccc(c34)C2N1c1ccccc1` (stereo unspecified) registered an absorption maximum (in Cc1ccccc1) of 312 nm.

`O=Cc1ccc2nc(C#Cc3ccc(N(c4ccc(C#Cc5nc6ccc(C=O)cc6s5)cc4)c4ccc(C#Cc5nc6ccc(C=O)cc6s5)cc4)cc3)sc2c1` gave an absorption maximum (in Cc1ccccc1) of 421 nm.

For the compound `Cc1ccc(C#Cc2ccc3ccc(=O)oc3c2)cc1`, the absorption maximum (in CC#N) turned out to be 304 nm.

For the compound `CCCCCCCCN1C(=O)c2ccc3c4c(-c5ccc6c7ccccc7n(-c7ccccc7)c6c5)cc5c6c(cc(-c7ccc8c9ccccc9n(-c9ccccc9)c8c7)c(c7ccc(c2c37)C1=O)c64)C(=O)N(CCCCCCCC)C5=O`, the absorption maximum (in ClC(Cl)Cl) is 567 nm.

As for `CCOC(=O)c1c2c3c(ccc(Br)c3c3cc4ccccc4cc13)N(C)C2=O`, the absorption maximum (in CC#N) is 404 nm.

In turn, `CN(C)c1cc2c(cc1F)c(=O)c1cc(F)c(N)cc1n2C` came in with an absorption maximum (in CCO) of 369 nm.

As for `CNc1ccc2c(c1)-c1ccccc1C2=O`, the absorption maximum by setting is: (in C1CCCCC1) 389 nm; (in CC#N) 424 nm; (in CCO) 436 nm; (in c1ccccc1) 409 nm.

`C[Si](C)(C)C#Cc1cccc2ccccc12` gave an absorption maximum (in C1CCCCC1) of 316 nm.

As for `O=C([O-])c1cc2c(ccc3ccccc32)oc1=O`, for the setting “in O”, the absorption maximum amounted to 360 nm.

Consider `F[B-]1(F)n2c(ccc2-c2ccccc2)C(c2ccc(I)cc2)=C2C=CC(c3ccccc3)=[N+]21`, for which the absorption maximum (in ClC(Cl)Cl) is given as 555 nm.

As for `CC(=O)Nc1cccc2c1C#Cc1c(cccc1C(=O)N(C)C)OCCCO2`, the absorption maximum is, setting by setting: (in CC#N) 315 nm; (in ClCCl) 318 nm.

Turning to `CCN(CC)c1ccc2c(-c3ccc(S(=O)(=O)[O-])cc3S(=O)(=O)[O-])c3ccc(=[N+](CC)CC)cc-3oc2c1`, the absorption maximum was 548 nm (in CC#N), 552 nm (in CCO), 552 nm (in CN(C)C=O) and 562 nm (in O).

As to `COc1cc(-c2nc3c4cccnc4c4ncccc4c3[nH]2)c(OC)cc1/C=C/c1nc2ccccc2[nH]1`, the absorption maximum reads like this: (in C1CCOC1) 401 nm; (in CC#N) 398 nm; (in CO) 391 nm; (in ClCCl) 400 nm.
